Source: US12129275B2, “Neuroactive steroids, compositions, and uses thereof” (SAGE THERAPEUTICS, INC., priority 2011, dated 2024)
“And” between values parts separate entries of the source, which are not always exact repeats. Equal entries are not always repeated.

Tests used:
[1] = target: T1, NMDA receptor (GRIN1/GRIN2A subunits) (Homo sapiens, UniProt Q05586+Q12879); assay: NMDA potentiation, whole-cell patch-clamp in HEK cells; type: cell-based; details: currents evoked by 30 μM NMDA and 5.0 μM Glycine, holding potential −80 mV; for NMDA 1a2A (%) Potentiation 0.1 uM: compound 0.1 uM; for NMDA 1a2A (%) Potentiation 1 uM: compound 1 uM
T1 construct: expressed in transfected cells

NMDA (NR1a/NR2A) = NMDA (NR1a/NR2A) (Homo sapiens, UniProt Q05586+Q12879); details: reported, Madau et al. / Connick et al. 2009; cited from earlier work
NMDA receptors = details: background statement; cited from earlier work

T1 sequence (Q12879 23-1464, other chains not shown): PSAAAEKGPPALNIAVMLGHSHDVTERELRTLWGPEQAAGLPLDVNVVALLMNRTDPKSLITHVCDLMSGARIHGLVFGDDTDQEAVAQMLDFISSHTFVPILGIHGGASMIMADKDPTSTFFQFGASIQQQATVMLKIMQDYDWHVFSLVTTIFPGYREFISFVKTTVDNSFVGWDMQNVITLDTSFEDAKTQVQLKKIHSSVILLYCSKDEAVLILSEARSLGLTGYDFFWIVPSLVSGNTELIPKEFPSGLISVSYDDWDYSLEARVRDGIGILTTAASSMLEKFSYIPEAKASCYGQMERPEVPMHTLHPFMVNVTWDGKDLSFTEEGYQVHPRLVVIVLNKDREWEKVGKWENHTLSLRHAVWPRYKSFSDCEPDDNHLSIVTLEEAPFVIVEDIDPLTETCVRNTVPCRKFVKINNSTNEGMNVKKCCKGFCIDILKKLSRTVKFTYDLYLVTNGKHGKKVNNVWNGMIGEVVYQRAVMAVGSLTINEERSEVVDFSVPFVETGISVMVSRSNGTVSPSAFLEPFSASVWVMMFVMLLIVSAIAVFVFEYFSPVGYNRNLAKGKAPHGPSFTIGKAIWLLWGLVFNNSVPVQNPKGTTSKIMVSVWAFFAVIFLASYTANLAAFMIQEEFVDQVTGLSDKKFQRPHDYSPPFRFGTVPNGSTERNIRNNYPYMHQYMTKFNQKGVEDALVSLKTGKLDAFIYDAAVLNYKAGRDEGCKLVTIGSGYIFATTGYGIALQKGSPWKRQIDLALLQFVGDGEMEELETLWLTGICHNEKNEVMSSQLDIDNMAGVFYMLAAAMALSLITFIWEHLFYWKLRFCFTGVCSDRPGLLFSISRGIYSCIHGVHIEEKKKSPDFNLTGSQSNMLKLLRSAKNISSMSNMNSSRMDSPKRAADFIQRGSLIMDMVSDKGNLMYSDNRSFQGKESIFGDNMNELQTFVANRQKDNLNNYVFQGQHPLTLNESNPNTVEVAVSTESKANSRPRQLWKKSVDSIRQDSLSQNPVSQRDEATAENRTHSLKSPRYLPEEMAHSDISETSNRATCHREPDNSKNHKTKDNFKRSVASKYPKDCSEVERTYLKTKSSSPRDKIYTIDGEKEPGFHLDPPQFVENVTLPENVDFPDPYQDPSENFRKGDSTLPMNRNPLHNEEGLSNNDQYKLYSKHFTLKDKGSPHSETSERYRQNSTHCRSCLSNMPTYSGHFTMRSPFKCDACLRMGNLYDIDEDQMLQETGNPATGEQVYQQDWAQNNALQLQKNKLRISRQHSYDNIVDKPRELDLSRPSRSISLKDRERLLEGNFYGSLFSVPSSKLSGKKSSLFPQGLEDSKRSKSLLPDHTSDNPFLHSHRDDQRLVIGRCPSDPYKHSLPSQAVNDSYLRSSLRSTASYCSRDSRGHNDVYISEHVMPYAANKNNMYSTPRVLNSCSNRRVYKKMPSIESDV
NMDA (NR1a/NR2A), sequence (Q12879 23-1464, other chains not shown): as above

CC(CCC(C)(C)O)[C@H]1CC[C@H]2[C@@H]3CC=C4C[C@@H](O)CC[C@]4(C)[C@H]3CC[C@]12C (stereo partly shown)
NMDA 1a2A (%) Potentiation 0.1 uM [1]: 55%
NMDA 1a2A (%) Potentiation 1 uM [1]: 197%

C[C@H](CCC(C)(C)O)[C@H]1CC[C@H]2[C@@H]3CC=C4C[C@@](C)(O)CC[C@]4(C)[C@H]3CC[C@]12C
NMDA 1a2A (%) Potentiation 0.1 uM [1]: 128%
NMDA 1a2A (%) Potentiation 1 uM [1]: 348%

C[C@H](CCC(C)(C)O)[C@H]1CC[C@H]2[C@@H]3CC=C4C[C@@H](O)CC[C@@H]4[C@H]3CC[C@]12C
NMDA 1a2A (%) Potentiation 0.1 uM [1]: 28%
NMDA 1a2A (%) Potentiation 1 uM [1]: 66%

C[C@H](CCC1(O)CC1)[C@H]1CC[C@H]2[C@@H]3CC=C4C[C@@H](O)CC[C@]4(C)[C@H]3CC[C@]12C
NMDA 1a2A (%) Potentiation 0.1 uM [1]: 74%
NMDA 1a2A (%) Potentiation 1 uM [1]: 171%

C[C@H](CC(F)(F)CO)[C@H]1CC[C@H]2[C@@H]3CC=C4C[C@@H](O)CC[C@]4(C)[C@H]3CC[C@]12C
NMDA 1a2A (%) Potentiation 0.1 uM [1]: 31%
NMDA 1a2A (%) Potentiation 1 uM [1]: 95%

C[C@H](CCCO)[C@H]1CC[C@H]2[C@@H]3CC=C4C[C@@H](O)CC[C@]4(C)[C@H]3CC[C@]12C
NMDA 1a2A (%) Potentiation 0.1 uM [1]: 39%
NMDA 1a2A (%) Potentiation 1 uM [1]: 127%

C[C@H](CCC(C)(C)O)[C@H]1CC[C@H]2[C@@H]3CC[C@H]4C[C@@H](O)CC[C@@H]4[C@H]3CC[C@]12C
NMDA 1a2A (%) Potentiation 0.1 uM [1]: 19%
NMDA 1a2A (%) Potentiation 1 uM [1]: 44%

C[C@@H]([C@H]1CC[C@H]2[C@@H]3CC=C4C[C@@H](O)CC[C@]4(C)[C@H]3CC[C@]12C)C(C)(C)O
NMDA 1a2A (%) Potentiation 0.1 uM [1]: 4%
NMDA 1a2A (%) Potentiation 1 uM [1]: 24%

CC(O)CC[C@@H](C)[C@H]1CC[C@H]2[C@@H]3CC=C4C[C@@H](O)CC[C@]4(C)[C@H]3CC[C@]12C (stereo partly shown)
NMDA 1a2A (%) Potentiation 0.1 uM [1]: 42%
NMDA 1a2A (%) Potentiation 1 uM [1]: 98%

C[C@H](CCC(C)(C)O)[C@H]1CC[C@H]2[C@@H]3CC=C4C[C@](C)(O)CC[C@]4(C)[C@H]3CC[C@]12C
NMDA 1a2A (%) Potentiation 0.1 uM [1]: 13%
NMDA 1a2A (%) Potentiation 1 uM [1]: 60%

C[C@H](CCC(C)(C)N)[C@H]1CC[C@H]2[C@@H]3CC=C4C[C@@H](O)CC[C@]4(C)[C@H]3CC[C@]12C
NMDA 1a2A (%) Potentiation 0.1 uM [1]: −8%
NMDA 1a2A (%) Potentiation 1 uM [1]: −19%

CC[C@]1(O)CC[C@@]2(C)C(=CC[C@H]3[C@@H]4CC[C@H]([C@H](C)CCC(C)(C)O)[C@@]4(C)CC[C@@H]32)C1
NMDA 1a2A (%) Potentiation 0.1 uM [1]: 181%
NMDA 1a2A (%) Potentiation 1 uM [1]: 286%

CC[C@@]1(O)CC[C@@]2(C)C(=CC[C@H]3[C@@H]4CC[C@H]([C@H](C)CCC(C)(C)O)[C@@]4(C)CC[C@@H]32)C1
NMDA 1a2A (%) Potentiation 0.1 uM [1]: 23%
NMDA 1a2A (%) Potentiation 1 uM [1]: 139%

CNC(C)(C)CC[C@@H](C)[C@H]1CC[C@H]2[C@@H]3CC=C4C[C@@H](O)CC[C@]4(C)[C@H]3CC[C@]12C
NMDA 1a2A (%) Potentiation 0.1 uM [1]: 25%
NMDA 1a2A (%) Potentiation 1 uM [1]: 19%

C[C@H](CCC(C)(C)O)[C@H]1CC[C@H]2[C@@H]3CC[C@H]4C[C@@](C)(O)CC[C@@H]4[C@H]3CC[C@]12C
NMDA 1a2A (%) Potentiation 0.1 uM [1]: 25%
NMDA 1a2A (%) Potentiation 1 uM [1]: 114%

C[C@H](CCC(C)(C)O)[C@H]1CC[C@H]2[C@@H]3CC[C@H]4C[C@](C)(O)CC[C@@H]4[C@H]3CC[C@]12C
NMDA 1a2A (%) Potentiation 0.1 uM [1]: 21%
NMDA 1a2A (%) Potentiation 1 uM [1]: 52%

C[C@H](CCC(C)(C)O)[C@H]1CC[C@H]2[C@@H]3CC[C@H]4C[C@](O)(C(F)(F)F)CC[C@@H]4[C@H]3CC[C@]12C
NMDA 1a2A (%) Potentiation 0.1 uM [1]: 14%
NMDA 1a2A (%) Potentiation 1 uM [1]: 85%

C[C@H](CCC(C)(C)O)[C@H]1CC[C@H]2[C@@H]3CC[C@H]4C[C@@H](O)CC[C@]4(C)[C@H]3CC[C@]12C
NMDA 1a2A (%) Potentiation 0.1 uM [1]: 18%
NMDA 1a2A (%) Potentiation 1 uM [1]: 85%

C[C@H](CCC(C)(C)O)[C@H]1CC[C@H]2[C@@H]3CC[C@H]4C[C@](O)(C(F)(F)F)CC[C@]4(C)[C@H]3CC[C@]12C
NMDA 1a2A (%) Potentiation 0.1 uM [1]: 59%
NMDA 1a2A (%) Potentiation 1 uM [1]: 172%

C[C@H](CCC(C)(C)O)[C@H]1CC[C@H]2[C@@H]3CC[C@H]4C[C@](C)(O)CC[C@]4(C)[C@H]3CC[C@]12C
NMDA 1a2A (%) Potentiation 0.1 uM [1]: 19%
NMDA 1a2A (%) Potentiation 1 uM [1]: 30%

C[C@H](CCC(C)(C)O)[C@H]1CC[C@H]2[C@@H]3CC[C@H]4C[C@@](C)(O)CC[C@]4(C)[C@H]3CC[C@]12C
NMDA 1a2A (%) Potentiation 0.1 uM [1]: 87% and 70%
NMDA 1a2A (%) Potentiation 1 uM [1]: 278% and 238%

C[C@H](CC(C)(C)O)[C@H]1CC[C@H]2[C@@H]3CC=C4C[C@@H](O)CC[C@]4(C)[C@H]3CC[C@]12C
NMDA 1a2A (%) Potentiation 0.1 uM [1]: −5%
NMDA 1a2A (%) Potentiation 1 uM [1]: 27%

CC(C)[C@H](O)CC[C@@H](C)[C@H]1CC[C@H]2[C@@H]3CC=C4C[C@@H](O)CC[C@]4(C)[C@H]3CC[C@]12C
NMDA 1a2A (%) Potentiation 0.1 uM [1]: 82%
NMDA 1a2A (%) Potentiation 1 uM [1]: 137%

C[C@H](CCC(C)(C)O)[C@H]1CC[C@H]2[C@@H]3CC[C@@H]4C[C@@](O)(C(F)(F)F)CC[C@]4(C)[C@H]3CC[C@]12C
NMDA 1a2A (%) Potentiation 0.1 uM [1]: 9%
NMDA 1a2A (%) Potentiation 1 uM [1]: 18%

COC[C@@]1(O)CC[C@@]2(C)[C@@H](CC[C@@H]3[C@@H]2CC[C@]2(C)[C@@H]([C@H](C)CCC(C)(C)O)CC[C@@H]32)C1
NMDA 1a2A (%) Potentiation 0.1 uM [1]: 8%
NMDA 1a2A (%) Potentiation 1 uM [1]: 25%

COC[C@]1(O)CC[C@@]2(C)[C@@H](CC[C@@H]3[C@@H]2CC[C@]2(C)[C@@H]([C@H](C)CCC(C)(C)O)CC[C@@H]32)C1
NMDA 1a2A (%) Potentiation 0.1 uM [1]: 14%
NMDA 1a2A (%) Potentiation 1 uM [1]: 110%

CC(C)(O)CCC[C@H]1CCC2C3CC[C@H]4C[C@@](C)(O)CC[C@]4(C)C3CC[C@@]21C (stereo partly shown)
NMDA 1a2A (%) Potentiation 0.1 uM [1]: 17%
NMDA 1a2A (%) Potentiation 1 uM [1]: 105%

CC(C)(O)CCO[C@H]1CCC2C3CC[C@H]4C[C@@](C)(O)CC[C@]4(C)C3CC[C@@]21C (stereo partly shown)
NMDA 1a2A (%) Potentiation 0.1 uM [1]: 6%
NMDA 1a2A (%) Potentiation 1 uM [1]: 27%

CC(C)(O)COC[C@H]1CCC2C3CC=C4C[C@@](C)(O)CC[C@]4(C)C3CC[C@@]21C (stereo partly shown)
NMDA 1a2A (%) Potentiation 0.1 uM [1]: −5%
NMDA 1a2A (%) Potentiation 1 uM [1]: −14%

C[C@H](CCC(C)(C)O)[C@H]1CC[C@H]2[C@@H]3CC=C4C[C@@H](O)CC[C@]4(C)[C@H]3CC[C@]12C [Org-1]
modulation of NMDA (NR1a/NR2A) (NMDA (NR1a/NR2A)): positive modulator
selectivity NMDA over GABAA (NMDA (NR1a/NR2A)): selectively modulate NMDA over GABAA

pregnenolone sulfate [PS]
modulation of NMDA receptors (NMDA receptors): positively modulated
